The record followed here is patent US7495027B2, “3-aryl-4-hydroxyfuranone compounds and the human and animal health use thereof” (Wyeth, priority 2003, dated 2009).

For one test, the system named is staphylococci. Briefly: Minimum inhibitory concentration, microdilution broth method, staphylococci. As to conditions: Mueller-Hinton broth, 18-22 hours at 35° C.; for MIC: Staphylococcus aureus. Type of test: cell-based. The method, then: (§1) Evaluation of the Minimum Inhibitory Concentration of Test Compounds Against A Variety of Bacterial Strains
(§2) In this evaluation the minimal inhibitory concentration (MIC) of test compounds against Gram positive and Gram negative bacteria is performed using the microdilution broth method as recommended by the National Committee for Clinical Laboratory Standards (Approved Standards M7-A5 2000). Mueller-Hinton broth is used for the enterobacteriaceae, staphylococci and enterococci. Streptococci are also tested in Mueller-Hinton broth supplemented with 5% horse blood (LHB). Test organisms include recent clinical isolates that are resistant to methicillin, penicillin and/or vancomycin. […].

The next test relates to enterococci. Briefly: Minimum inhibitory concentration, microdilution broth method, enterococci. Type of test: cell-based. As to conditions: Mueller-Hinton broth, 18-22 hours at 35° C.; for MIC: Enterococcus faecalis. The method, then: as §1, §2
The target of test [1] is E. coli Enopyruvyl-UPD-N-acetylglucosamine reductase, Mur B (Escherichia coli, UniProt P08373). Briefly: biochemical. As to conditions: (E) E. coli enzyme; for IC50: read-out: MurB IC50 (converted). As for the experimental part:
S. aureus and E. coli Enopyruvyl-UPD-N-acetylglucosamine reductase, Mur B
Preparation of Tris/BME buffer:
Dilute 17.5 uL of aqueous 5 mM BME (2-mercaptoethanol) to 50 mL with 50 mM Tris/HCl (pH 8.0).
(§3) Preparation of Enzyme Solution:
Dilute aqueous MurB stock solution (0.94 mg/mL) with 200 parts 50 mM Tris/2-BME buffer.
Synthesis of Substrate for MurB (MurA Product EP-UDP-GluNAc):
A mixture of 13 mg UDP-N-acetylglucosamine and 5.5 mg phosphoenolpyruvate are dissolved in 10 mL Tris/BME buffer forming 2 mM concentrations of each reagent in solution.
Preparation of Assay Buffer:
The assay buffer is prepared in water from reagents with the following final concentrations: 100 mM Tris/HCl (pH 8.0), 200 μM NADPH, 100 μM MurB substrate, 10 μM 2-mercaptoethanol, and 10 μM KCl.
Experiments are performed by adding 20 μL of a solution of test compound in a mixture of dimethylsulfoxide and water and 30 μL of enzyme solution to a well. After a pre-incubation period of 20 mins. at 23° C., 50 μL of Tris/BME buffer and 100 μL of assay buffer are added. […] Controls are performed using the same procedure and employing 20 μL of a blank dimethylsulfonide and solvent mixture in place of the test compound solution.
Using these values, the IC50 for each test compound is determined by linear regression analysis.

The next test concerns Streptococci. Briefly: Minimum inhibitory concentration, microdilution broth method, streptococci. The test is classed as cell-based. As to conditions: Mueller-Hinton broth with 5% horse blood, 18-22 hours at 35° C.; for MIC: S. pneumo GC 1894. The method, then: as §1, §2
For orientation: Broth dilution looks for growth in wells or tubes with falling amounts of substance.

For test [2], the target named is E. coli Uridine-diphosphate-N-acetvimuramoyl: L-alanine lipase, MurC (Escherichia coli, UniProt P17952). The test can be described thus: Inhibitory activity against MurC (E. coli). The conditions noted are these: (E) E. coli enzyme; for IC50: read-out: MurC IC50 (converted). Type of test: biochemical. The method, then:
S. aureus and E. coli Uridine-diphosphate-N-acetvimuramoyl: L-alanine lipase, MurC
The buffer is prepared from aqueous reagents with the following final concentrations: 83 mM Tris/HCl (pH 8.0), 50 mM MgC12, and 2 mM ATP.
as §3
A 1 mg/mL stock solution of MurC is prepared in a buffer consisting of 20 mM Tris/HCl (pH 8.5) with 2.5 μM BME. The stock solution is further diluted with the buffer to give a final enzyme concentration of 100 μg/mL for the E. coli stock solution and 70 μg/mL for the S. aureus stock solution.
(§4) Preparation of Test Compound Solutions:
(§5) All test solutions are prepared in DMSO as 10 mg/mL, then diluted with 50 mM Tris/HCl (pH 8.5) to 100 μg/mL.
(§6) Preparation of Stop Solution:
The stop solution is prepared by stirring 1 part 4.2% ammonium molydbate in 4N HCl with 2 parts 0.045% malachite green for 30 min.
In this evaluation, the inhibitory activity of a test compound against MurC, the enzyme which catalyzes the third step of bacterial cell wall bioxynthesis is determined. Experiments are performed by adding 2.5 μl buffer, 2.5 μl 0.5M NH4SO2, 5 μl 2 μM L-Ala, 5 μl enzyme solution and 6.5 μl test compound solution to each well in a 96-well microplate. After a pre-incubation period of 10 mins. at 23° C., 3.75 μl of a 0.75 μM solution of UDP-MurNac is added to each well. Following an incubation period of 10 mins. at 37° C., 210 μl stop solution and 50 μl of a 34% w/v sodium citrate solution are added and color is allowed to develop for 10 mins. at 23° C. (Lanzetta et al., Analytical Biochemistry, 1979, 95) Optical density readings are taken at 660 nm using a Molecular Devices Spectra Max 250 with Soft Max software. Controls are performed using the same procedure and omitting the addition of UDP-MurNac.
Using these values the IC50 is determined by linear regression analysis.

For test [3], the target named is T1, S. aureus Uridine-diphosphate-N-acetylmuramoyl-L-alanine: D-glutamate liease, MurD (Staphylococcus aureus, UniProt Q2FZ92).
T1 sequence (Q2FZ92 1-449): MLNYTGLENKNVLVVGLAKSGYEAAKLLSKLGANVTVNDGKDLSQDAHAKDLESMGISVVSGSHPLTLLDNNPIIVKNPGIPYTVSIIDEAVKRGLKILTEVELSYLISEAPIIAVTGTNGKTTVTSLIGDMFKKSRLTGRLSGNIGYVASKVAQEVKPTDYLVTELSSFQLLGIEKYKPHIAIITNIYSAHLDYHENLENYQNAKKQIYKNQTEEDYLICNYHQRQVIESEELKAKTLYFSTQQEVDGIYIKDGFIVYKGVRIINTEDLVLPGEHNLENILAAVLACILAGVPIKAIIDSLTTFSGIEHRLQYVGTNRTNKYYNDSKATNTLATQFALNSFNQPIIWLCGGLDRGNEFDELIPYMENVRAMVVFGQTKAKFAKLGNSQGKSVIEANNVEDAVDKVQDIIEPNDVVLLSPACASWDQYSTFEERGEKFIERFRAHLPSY
Briefly: biochemical. As to conditions: (S) S. aureus enzyme. As for the experimental part:
(§7) S. aureus and E. coli Uridine-diphosphate-N-acetylmuramoyl-L-alanine: D-glutamate liease, MurD
as §3, §4, §5, §6
(§8) In this evaluation, the inhibitory activity of a test compound against MurD, the enzyme which catalyzes the fourth step of bacterial cell wall biosynthesis is determined.

The target of test [4] is E. coli Uridine-diphosphate-N-acetylmuramoyl-L-alanine: D-glutamate liease, MurD (Escherichia coli, UniProt P14900). Briefly: biochemical. As to conditions: (E) E. coli enzyme. As for the experimental part:
as §7
The buffer is prepared from aqueous reagents with the following final concentrations: 83 mM Tris/HCl (pH 8.0), 50 mM MgCl2, and 2 mM ATP.
as §3, §4, §5, §6, §8

A further test deals with C. elegans. Briefly: Efficacy against nematodes (C. elegans motility rating). On the set-up: key: 0: no effect; 7: reduced movement in 24 h; 8: dead in 24 h; 9: dead in 4 h. As to conditions: dose 150 ppm, observations at 4 h and 24 h postimmersion. The method in brief: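 Mixed-stage C. elegans (~50 per well, L1 to adult) in M9 buffer exposed to test compound at 100 ppm, 150 ppm or 200 μM final. Motility of larvae and adults scored under dissecting microscope at 4 h and 24 h.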

In test [5] the test system is Trichostrongylus columbriformis. The test can be described thus: In vivo efficacy against T. colubriformis in infected gerbils. The conditions noted are these: gerbils infected with T. colubriformis; single oral dose of 50 mg/kg by gavage; worm counts four days post-treatment; % mortality as compared to negative control. The method in brief: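 Gerbils infected with ~800 L3/mL larvae were treated one week later by gavage with a single 50 mg/kg oral dose in PEG 400:DMSO (1:2 v/v), 3 animals per group. Necropsy four days post-treatment, with worms counted under stereoscopes.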

Where [6] appears, read: S. aureus GC 1131, read-out: MIC S. aureus GC 1131.
Where [7] appears, read: S. aureus GC 4543, read-out: MIC S. aureus GC 4543.
[8] abbreviates: E. faecalis GC 2242, read-out: MIC E. faecalis GC 2242.
Where [9] appears, read: E. faecalis GC 4555, read-out: MIC E. faecalis GC 4555.

Molecules are shown by their SMILES. In brackets after ≈: the same amount, converted by molar mass. Read-outs that look alike come from different tables or passages of the source.

Chain of E. coli Uridine-diphosphate-N-acetvimuramoyl: L-alanine lipase, MurC (P17952 whole entry): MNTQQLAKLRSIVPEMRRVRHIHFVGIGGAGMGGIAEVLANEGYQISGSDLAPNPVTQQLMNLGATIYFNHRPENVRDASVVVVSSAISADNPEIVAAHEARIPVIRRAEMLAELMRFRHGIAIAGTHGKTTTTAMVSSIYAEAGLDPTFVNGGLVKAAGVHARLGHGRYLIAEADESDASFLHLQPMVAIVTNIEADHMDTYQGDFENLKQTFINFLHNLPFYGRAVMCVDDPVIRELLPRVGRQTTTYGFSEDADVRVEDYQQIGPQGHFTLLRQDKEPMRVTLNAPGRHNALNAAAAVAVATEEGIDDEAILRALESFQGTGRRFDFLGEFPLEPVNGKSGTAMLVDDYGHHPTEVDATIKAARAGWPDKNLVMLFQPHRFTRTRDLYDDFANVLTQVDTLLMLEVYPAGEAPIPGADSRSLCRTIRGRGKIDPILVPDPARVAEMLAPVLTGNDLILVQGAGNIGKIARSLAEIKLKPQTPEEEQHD
Chain of E. coli Enopyruvyl-UPD-N-acetylglucosamine reductase, Mur B (P08373 whole entry): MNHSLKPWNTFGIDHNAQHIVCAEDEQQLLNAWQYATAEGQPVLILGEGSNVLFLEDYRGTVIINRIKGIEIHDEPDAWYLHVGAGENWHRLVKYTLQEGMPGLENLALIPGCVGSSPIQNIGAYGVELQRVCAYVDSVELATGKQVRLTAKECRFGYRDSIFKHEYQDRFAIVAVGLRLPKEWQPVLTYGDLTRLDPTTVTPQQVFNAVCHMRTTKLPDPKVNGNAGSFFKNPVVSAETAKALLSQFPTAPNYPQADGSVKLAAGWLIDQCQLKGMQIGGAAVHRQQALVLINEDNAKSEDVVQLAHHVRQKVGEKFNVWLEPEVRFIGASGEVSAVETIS
Chain of E. coli Uridine-diphosphate-N-acetylmuramoyl-L-alanine: D-glutamate liease, MurD (P14900 whole entry): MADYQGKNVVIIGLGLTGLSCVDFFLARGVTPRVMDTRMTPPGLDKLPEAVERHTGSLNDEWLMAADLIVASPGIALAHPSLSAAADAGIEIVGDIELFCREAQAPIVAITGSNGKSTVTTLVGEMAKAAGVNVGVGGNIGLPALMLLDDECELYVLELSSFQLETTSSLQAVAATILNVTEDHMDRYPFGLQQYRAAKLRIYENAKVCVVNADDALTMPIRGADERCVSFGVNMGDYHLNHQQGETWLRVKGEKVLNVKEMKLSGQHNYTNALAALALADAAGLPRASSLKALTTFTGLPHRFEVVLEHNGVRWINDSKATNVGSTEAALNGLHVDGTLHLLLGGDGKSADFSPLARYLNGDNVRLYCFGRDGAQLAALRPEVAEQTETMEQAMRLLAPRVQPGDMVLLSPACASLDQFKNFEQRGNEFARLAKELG

A word on the MIC: it is the lowest concentration that inhibits growth of the organism. Regarding `O=C1O/C(=C\c2ccc3ccccc3c2)C(O)=C1c1cccc(C(F)(F)F)c1` [Example 8], the MIC with staphylococci (setting [6]) stood at 8 µg/mL (≈ 20.9 µM); in the test on staphylococci (setting [7]) it was 8 µg/mL (≈ 20.9 µM); with enterococci (setting [8]), 4 µg/mL (≈ 10.5 µM); with enterococci (setting [9]), 16 µg/mL (≈ 41.8 µM); against Streptococci, 0.25 µg/mL (≈ 0.654 µM). Moreover, in [1], the “MurB IC50” value is recorded as 11 (E) μg/mL. The “MurC IC50” value in [2] is reported as 6 (E) μg/mL.

What is called IC50 is the concentration needed to halve the response being measured. For the molecule `O=C1O/C(=C\c2ccc(-c3ccccc3)cc2)C(O)=C1c1ccc2ccccc2c1` [Example 45], the MIC in the test on staphylococci (setting [6]) was determined as 16 µg/mL (≈ 41 µM); with staphylococci (setting [7]), 4 µg/mL (≈ 10.2 µM); in the test with enterococci (setting [8]), 4 µg/mL (≈ 10.2 µM); with enterococci (setting [9]) it was 8 µg/mL (≈ 20.5 µM); in the test with Streptococci, 2 µg/mL (≈ 5.12 µM). In test [3], this molecule gave an IC50 above 64 µM. The “MurB IC50” value in test [1] is 2 (E) μg/mL. Besides, the “MurC IC50” value in test [2] was 10 (E) μg/mL.

Take `O=C1O/C(=C\c2cccc(C(F)(F)F)c2)C(O)=C1c1cccc2ccccc12` [Example 48]: the MIC is 32 µg/mL (≈ 83.7 µM) with staphylococci (setting [6]); 64 µg/mL (≈ 167 µM) in the test on staphylococci (setting [7]); 32 µg/mL (≈ 83.7 µM) in the test on enterococci (setting [8]); above 128 µg/mL in the test on enterococci (setting [9]); 8 µg/mL (≈ 20.9 µM) in the test on Streptococci. Further, in test [2], the “MurC IC50” value was 13 (E) μg/mL.

For the molecule `O=C1O/C(=C\c2cc(F)cc(C(F)(F)F)c2)C(O)=C1c1cccc(-c2ccccc2)c1` [Example 109], the MIC with staphylococci (setting [6]) was found to be 2 µg/mL (≈ 4.69 µM); in the test with staphylococci (setting [7]), 2 µg/mL (≈ 4.69 µM); with enterococci (setting [8]) it was 1 µg/mL (≈ 2.35 µM); with enterococci (setting [9]) it was 4 µg/mL (≈ 9.38 µM); against Streptococci, 0.25 µg/mL (≈ 0.586 µM). The results for the IC50 in [4], in test [1] and in test [2] were above 58.6 µM, 9.38 µM and 23.5 µM, respectively.

For `O=C1O/C(=C\c2cc(F)cc(C(F)(F)F)c2)C(O)=C1c1cccc(-c2ccccc2)c1` [Example 112], in the test with staphylococci (S. aureus GC 1131), the “MIC S. aureus GC 1131” value came out at 2 µg/mL (≈ 4.69 µM). In addition, the “MIC S. aureus GC 4543” value against staphylococci (S. aureus GC 4543) was found to be 4 µg/mL (≈ 9.38 µM). For the same molecule, the “MIC E. faecalis GC 2242” value with enterococci (E. faecalis GC 2242) turned out to be 2 µg/mL (≈ 4.69 µM). In addition, the “MIC E. faecalis GC 4555” value in the test with enterococci (E. faecalis GC 4555) came out at 8 µg/mL (≈ 18.8 µM). For the same molecule, the IC50 in test [4] was above 58.6 µM; in [1], 11.7 µM; in test [2], 23.5 µM. Moreover, the “MIC S. pneumo GC 1894” value in the test with Streptococci came to 0.25 µg/mL (≈ 0.586 µM).

Consider `O=C1O/C(=C\c2ccc(Cl)cc2)C(O)=C1c1ccc(-c2ccccc2)cc1` [Example 139], for which the MIC with staphylococci (setting [6]) came to 16 µg/mL (≈ 42.7 µM); in the test with staphylococci (setting [7]), 16 µg/mL (≈ 42.7 µM); in the test on enterococci (setting [8]), 4 µg/mL (≈ 10.7 µM); with enterococci (setting [9]) it was 8 µg/mL (≈ 21.3 µM); in the test with Streptococci it was 1 µg/mL (≈ 2.67 µM). Also, the IC50 in test [1] was 16 µM. In addition, in test [2], the “MurC IC50” value was 16 (E) μg/mL.

`O=C1OC(=Cc2ccc3ccccc3c2)C(O)=C1c1ccc(Cl)cc1` [R=H; R1=4-Cl—C6H4; R2=2-naphthyl]: the Rating with C. elegans is on record as 9. Moreover, the Mortality in [5] is on record as 52.80%.

In turn, `COc1ccc(C=C2OC(=O)C(c3ccc(Cl)cc3)=C2O)cc1` [R=H; R1=4-Cl—C6H4; R2=4-OCH3—C6H4] came in with a Rating in the test with C. elegans of 0. The Mortality in test [5] is reported as 7.10%.

`COc1ccc(C2=C(O)C(=Cc3ccc(-c4ccccc4)cc3)OC2=O)cc1` [R=H; R1=4-OCH3—C6H4; R2=4-biphenyl]: the Rating with C. elegans was determined as 9. The Mortality in test [5] stood at 44.90%.

In the test with C. elegans, `O=C1O/C(=C\c2ccccc2C(F)(F)F)C(O)=C1c1ccc(-c2ccccc2)cc1` [R=H; R1=4-biphenyl; R2=2-CF3—C6H4] came in with a Rating of 9. This molecule also returned a Mortality in test [5] of 23.90%.

As to `O=C1OC(=Cc2ccc(C(F)(F)F)cc2)C(O)=C1c1ccc(-c2ccccc2)cc1` [R=H; R1=4-biphenyl; R2=4-CF3—C6H4], the Rating with C. elegans is reported as 9. In [5], this molecule returned a Mortality of 0.00%.

In the test with C. elegans, `O=C1O/C(=C\c2ccc(Cl)cc2)C(O)=C1c1ccc(-c2ccccc2)cc1` [R=H; R1=4-biphenyl; R2=4-Cl—C6H4] gave a Rating of 9. The Mortality in test [5] came out at 44.70%.
